No end group written: not given here.
Key:
Assay in all cases: REVEAL Epitope Discovery System in vitro MHC-peptide binding assay
HLA-A*02:01 = HLA-A*02:01 (Homo sapiens, UniProt P04439, D140Y/D185E/D98H/E176V/E277Q/G131W/G231S/I119V/I121R/I166T/I218V/L300P/L318F/N151K/N90K/P208A/P217A/Q86G/Q94H/R138H/R169H/T345S); details: binding normalized to positive control peptide set at 100%, greater than 50 considered good or high affinity binding
Method: (§1) Actual binding affinities for certain HLA class I alleles (A*02:01, A*03:01, A*11:01, and B*08:01) were assessed in vitro for exemplary overlapping 9 amino acid peptide sequences within a portion of the 26 amino acid junction region spanning the CD28 and 4-1BB junction. Specifically, assessment was of a series of overlapping 9-mer peptides derived from the sequence […] (set forth in SEQ ID NO: 7), which contains a portion of the CD28 transmembrane domain and 4-1BB costimulatory domain spanning the junction between the domains (bond joining the two amino acids noted in underline). In addition, a series of overlapping 9-mer peptides of each of a number of different variants of this portion also were assessed, each variant containing a mutation or mutations in this region as described in Example 2.
(§2) The various 9-mer overlapping peptides were synthesized and their purity tested by MALDI-TOF Mass Spectrometry. The synthetic peptides were then incubated with recombinant MHC molecules to assess binding properties using the REVEAL Epitope Discovery System, which is a high-throughput binding assay that measures the degree to which each peptide is able to stabilize a ternary MHC-peptide complex (Prolmmune, Oxford, United Kingdom). Each peptide was separately tested for this ability with respect to each of the HLA class I alleles, normalized to the degree observed for a positive control (known T cell epitope for the relevant allele). The results are reported as a score, in which the binding was normalized to the positive control peptide set at 100%. In this analysis, a score of greater than 50 generally was considered to represent good or high affinity binding.

HLA-B*08:01 = HLA-B*08:01 (Homo sapiens, UniProt P01889, A93T/A95T/D138N/E176V/E187T/K202T/Q94N/R180D/S35A/V36M/Y33D/Y91F); details: binding normalized to positive control peptide set at 100%, >50 considered good or high affinity binding
Method: as §1, §2

HLA-A*03:01 = HLA-A*03:01 (Homo sapiens, UniProt P04439); details: REVEAL score, binding normalized to positive control peptide set at 100%; greater than 50 considered good or high affinity binding
Method: as §1, §2

HLA-A*11:01 = HLA-A*11:01 (Homo sapiens, UniProt P04439, A114D/D185E/E176A/F33Y/L180Q/S129P/T187R); details: binding normalized to positive control peptide set at 100%, >50 considered good or high affinity binding
Method: as §1, §2

Sequence | A*02:01 In Vitro Score (HLA-A*02:01) | B*08:01 In Vitro Score (HLA-B*08:01) | A*03:01 In Vitro (HLA-A*03:01) | A*11:01 In Vitro Score (HLA-A*11:01)
FIIFWVQRG | 16.80 | 0.60 | 0.40 | 1.50
FIIFWVSRG | 0.20 | 0.40 | 0.10 | 5.10
FWVHRGRKK | 1.60 | 0.00 | 3.60 | 5.60
FWVKRGAKK | 4.30 | 0.30 | 4.70 | 13.20
FWVKRGHKK | 2.60 | 0.40 | 4.10 | 27.60
FWVKRGRKK | 3.50 | 0.00 | 2.20 | 6.50
FWVKRGSKK | 1.90 | 0.10 | 5.90 | 5.60
FWVLRGRKK | 3.30 | 0.00 | 0.40 | 5.00
FWVQRGAKK | 2.20 | 0.00 | 2.70 | 18.30
FWVQRGNKK | 3.10 | 0.00 | 1.30 | 5.90
FWVQRGRKK | 5.20 | 1.90 | 6.40 | 5.70
FWVQRGSKK | 0.80 | 0.00 | 1.90 | 6.80
FWVSRGRKK | 1.50 | 0.00 | 2.90 | 6.30
IFWVARGRK | 1.00 | 0.00 | 53.70 | 34.90
IFWVHRGRK | 7.10 | 0.10 | 37.80 | 36.60
IFWVKRGAK | 13.80 | 2.20 | 22.00 | 69.70
IFWVKRGLK | 2.40 | 58.30 | 26.90 | 61.10
IFWVKRGRK | 4.50 | 0.40 | 20.50 | 29.30
IFWVKRGSK | 2.40 | 1.20 | 10.40 | 47.90
IFWVLRGRK | 2.90 | 0.00 | 19.50 | 29.30

Sequence | A*02:01 In Vitro Score (HLA-A*02:01) | B*08:01 In Vitro Score (HLA-B*08:01) | A*03:01 In Vitro (HLA-A*03:01) | A*11:01 In Vitro Score (HLA-A*11:01)
IFWVQRGAK | 11.70 | 0.20 | 17.00 | 61.30
IFWVQRGNK | 16.10 | 0.10 | 23.20 | 67.50
IFWVQRGRK | 6.10 | 0.00 | 36.70 | 128.50
IFWVQRGSK | 33.50 | 0.00 | 20.30 | 103.30
IFWVSRGRK | 1.30 | 0.00 | 39.20 | 39.20
IIFWVHRGR | 4.70 | 0.20 | 30.10 | 77.50
IIFWVKRGA | 85.90 | 0.90 | 42.90 | 22.60
IIFWVKRGH | 5.30 | 0.10 | 26.60 | 19.50
IIFWVKRGL | 82.20 | 1.70 | 15.90 | 32.40
IIFWVKRGR | 1.70 | 0.00 | 24.30 | 54.50
IIFWVQRGA | 95.30 | 0.20 | 2.70 | 56.50
IIFWVQRGN | 13.00 | 0.00 | 3.60 | 29.00
IIFWVQRGR | 5.80 | 0.10 | 18.00 | 72.80
IIFWVQRGS | 22.40 | 0.10 | 4.50 | 16.90
IIFWVSRGR | 2.60 | 0.00 | 25.30 | 68.90
VAFIIFWVK | 0.70 | 0.30 | 1.50 | 109.20
VAFIIFWVL | 0.20 | 0.00 | 0.00 | 0.20
VAFIIFWVQ | 5.30 | 0.20 | 0.20 | 3.90
VAFIIFWVR | 1.20 | 0.10 | 0.70 | 34.60
VAFIIFWVS | 70.60 | 0.10 | 0.70 | 25.10
